# Measured values reported in publication PMC9499525, “Tissue-restricted inhibition of mTOR using chemical genetics” (Proceedings of the National Academy of Sciences of the …, 2022).
# Like-named read-outs stand apart in the source and are kept apart here.
# How the values were obtained:
# [1] = tested on: mTOR signaling in Flp-In T-REx 293 FKBP12 V55G cells; assay: mTOR signaling by Western blot in FKBP12 V55G-expressing Flp-In 293 cells; assay type: cell-based, human; settings: for IC50: Homo sapiens, 24 h treatment, mutant (FKBP12 V55G) 293 cells
# Experimental: All cell lines were maintained in DMEM (Gibco) supplemented with 10% heat-inactivated FBS (Axenia Biologix) at 37 °C in 5% CO2. Flp-In T-REx 293 cells were obtained from Thermo Fisher supplemented with 15 µg/mL blasticin and 100 µg/mL Zeocin. Flp-In T-REx 293 FKBP12 V55G cells were supplemented with 15 µg/mL blasticin and 150 µg/mL hygromycin B. FKBP12 V55G expression was induced with 1 µg/mL doxycycline 24 h prior to drug treatments. MCF7 cells were obtained from ATCC (American Type Culture Collection), and MCF7 mTOR F2108L cells were described previously ([30]). When indicated, cells were treated with drugs at 60–80% confluency at a final DMSO concentration of 0.1%. At the end of the treatment period, cells were placed on ice and washed once with PBS. Cells were scraped with a spatula and lysed in radioimmunoprecipitation assay (RIPA) buffer supplemented with protease and phosphatase inhibitors (cOmplete and phosSTOP, Roche) on ice for 5 min. Lysates were clarified by high-speed centrifugation. Lysate concentration was determined by Bradford assay (Thermo Fisher) and adjusted to 2 mg/mL with additional RIPA buffer. Samples were mixed with 5x SDS loading dye and heated at 95 °C for 5 min.
# SDS-PAGE was run with Novex 4–12% Bis-Tris gel (Invitrogen) in MOPS running buffer at 200V for 40 min. Samples were loaded at 20 µg lysate per lane. Protein bands were transferred onto 0.2 µm nitrocellulose membranes (Bio-Rad) using wet tank transfer apparatus (Bio-Rad Criterion Blotter) in 1x TOWBIN buffer with 10% methanol at 75V for 45 min. Membranes were blocked in 5% BSA-TBST (tris-buffered saline, 0.1% Tween 20) for 1 h at room temperature. Membranes were cut into separate strips for each primary antibody. Primary antibody binding was performed with the indicated antibodies at manufacturer’s recommended dilution in 5% BSA-TBST at 4 °C overnight. After three 5 min. washes with TBST, secondary antibodies (Li-COR) were added as solutions in 5% skim milk-TBST at 1:10,000 dilutions. Secondary antibodies were incubated for 1 h at room temperature. Following three 5 min. washes with TBST, membranes were imaged on a Li-COR Odyssey fluorescence imager. Image contrast was adjusted independently for each strip using the “Auto” adjustment function in Fiji. Blot quantification was performed in Fiji, and data were graphed and fit in Prism 9 (GraphPad). The following primary antibodies were obtained from Cell Signaling Technology (CST), Abcam (ab), and ProteinTech (PT): S6 (CST 2317), phospho-S6 S240/244 (CST 5364), S6K (CST 2708), phospho-S6K T389 (CST 9206), Akt (CST 2920), phospho-Akt S473 (CST 4060), HA (CST 3724), FKBP12 (ab58072), and GAPDH (PT 60004). For detection of phosphorylated and total protein, primary antibodies for phospho-Akt/Akt, phospho-S6K/S6K, or phospho-S6/S6 were combined and detected using a mixture of species-specific secondary antibodies with orthogonal fluorescence to allow simultaneous detection of phosphorylated and total protein from a single membrane, or membrane was stripped (Cell Signaling Technology) after detection of phosphorylated protein and then reblocked and reprobed with primary antibody for total protein. […]
# Generation of 293 Flp-In T-REx FKBP12 V55G cell line
# FKBP12 V55G-expressing Flp-In T-REx 293 cells were generated using recommended conditions from Thermo Fisher. Briefly, human FKBP12 V55G-HA coding sequence was cloned into the pcDNA5/FRT/TO targeting vector by Gibson assembly. […]
smiles,measurement,setting,value
CCO/N=C1/C[C@@H]([C@H](C)C[C@@H]2CC[C@@H](O)[C@H](OC)C2)OC(=O)[C@@H]2CCCCN2C(=O)C(=O)[C@]2(O)O[C@@H](CC[C@H]2C)C[C@H](OC)/C(C)=C/C=C/C=C/[C@@H](C)C[C@@H](C)C(=O)[C@H](OC)[C@H](O)/C(C)=C/[C@H]1C [Rapa*-3Z],"Stability under experimental conditions (fly food, room temperature)","15 days, 100 µM",at least 15 d
same,Decomposition to rapamycin after prolonged storage,"storage under experimental conditions, wild-type larvae readout",does not decompose to rapamycin
same,Time to half-maximal inhibition of S6 phosphorylation,"[1]; 10 nM, mutant FKBP12 293 cells",31 min
same,Akt phosphorylation (mTORC2 substrate),"[1]; 24 h, mutant vs wild-type 293 cells",selectively reduced Akt phosphorylation in the mutant 293 cells at higher doses
same,IC50,[1]; read-out: IC50 phospho-S6,1.3 nM
same,IC50,[1]; read-out: IC50 phospho-S6K,1 nM
same,Increase in sensitivity in mutant-expressing cells vs wild-type cells,"[1]; p-S6K and p-S6 IC50s, 24 h",~100 fold
